According to patent US20170205398A1, “DRUG SCREENING AND POTENCY ASSAYS” (REGENMED (CAYMAN) LTD., priority 2011, published 2017):

Tested on: γ-glutamyl transpeptidase (GGT)
Assay: Amphotericin B knockdown of SRC/NKA ex vivo GGT (western blot band density, semilogarithmic dose response)
Type: cell-based, human
Text: Morphological, genotypic, phenotypic and functional changes to 2D cultured SRC were monitored to 72hrs following exposure to escalating doses of the well known nephrotoxin, Amphotericin B (Amp B). The TC50 was estimated by Amp B knockdown of SRC/NKA ex vivo GGT activity.
GGT inhibition detected by western blot is shown in below in Table 16.1.
Results from semilogarithmic dose response analysis are shown below in Table 16.2.

In the case of C[C@@H]1[C@H](O)[C@@H](C)/C=C/C=C/C=C/C=C/C=C/C=C/C=C/[C@H](O[C@@H]2O[C@H](C)[C@@H](O)[C@H](N)[C@@H]2O)C[C@@H]2O[C@](O)(C[C@@H](O)C[C@@H](O)[C@H](O)CC[C@@H](O)C[C@@H](O)CC(=O)O[C@H]1C)C[C@H](O)[C@H]2C(=O)O [Amphotericin B], the IC50 (2D cultured SRC, exposure to 72 hrs, sigmoidal fit Log(inhibitor) vs response, read-out: IC50 of inhibitory effect on SRC-mediated GGT) is reported as 32.3 µM, the LOGIC50 (Log(inhibitor) vs response fit, 2D cultured SRC) is reported as 1.510 and the “GGT western blot band density (response)” value ([c] 0.01) is reported as 18764. The “inv response (inverse of band density)” value ([c] 0.01) was 5.329E−05, the “GGT western blot band density (response)” value ([c] 0.1) was 18959 and the “inv response (inverse of band density)” value ([c] 0.1) was 5.275E−05. For the same compound, the “GGT western blot band density (response)” value ([c] 1) was 17112, the “inv response (inverse of band density)” value ([c] 1) was 5.844E−05 and the “GGT western blot band density (response)” value ([c] 10) was 16611. The “inv response (inverse of band density)” value ([c] 10) was 6.02E−05, the “GGT western blot band density (response)” value ([c] 100) was 8227 and the “inv response (inverse of band density)” value ([c] 100) was 0.0001216. The “GGT western blot band density (response)” value ([c] 1000) was 8000, the “inv response (inverse of band density)” value ([c] 1000) was 0.000125 and the “GGT western blot band density (response)” value ([c] 10000) was 7800. The “inv response (inverse of band density)” value ([c] 10000) was 0.0001282.
